In patent US20190010236A1, “METHODS AND COMPOSITIONS FOR DECTIN-2 STIMULATION AND CANCER IMMUNOTHERAPY” (The Board of Trustees of the Leland Stanford Junior …, priority 2015, published 2019):

Key:
subcutaneous PDAC tumors = experiment: Kifunensine treatment of mice with subcutaneous PDAC tumors; assay type: in vivo; details: kifunensine i.p., q2d for 7 days
Method: (§1) FIG. 5A-5D. Mannosidase inhibition with kifunensine induces high-mannose glycan display and increases tumor cell immunogenicity. (FIG. 5A-5C) PDAC cells were treated with kifunensine for 3 days prior to flow cytometric analysis (FIG. 5A) or coculture with TAM (FIG. 5B, FIG. 5C). (FIG. 5A) PDAC cells stained with the mannose-binding lectin, concavalin A. (FIG. 5B, FIG. 5C) Pretreated PDAC cells were labeled with CSFE and cocultured overnight with TAM to assess cytokine production (FIG. 5B) and tumor cell uptake (FIG. 5C) by Dectin-2-expressing TAM. In some experiments, TAM were treated with Dectin-2-blocking antibodies prior to coculture with PDAC cells (FIG. 5C). *, p<0.05 by Student's t-test. (FIG. 5D) Subcutaneous PDAC tumors from kifunensine-treated mice (i.p., q2d for 7 days) were analyzed by flow cytometry. CD8 T cells (CD8^+CD90^+) among total tumor-infiltrating immune cells are gated.

[1] = tested on: tumor-associated myeloid cells (TAM cells); experiment: Coculture of kifunensine-pretreated PDAC cells with TAM (cytokine production, tumor cell uptake); assay type: cell-based; details: kifunensine-pretreated PDAC cells cocultured overnight with TAM; Dectin-2-dependent
Method: as §1

PDAC cells = experiment: High-mannose glycan display on kifunensine-treated tumor cells (concavalin A staining); assay type: cell-based; details: tumor cells treated with kifunensine for 3 days
Method: as §1

s.c. CT26 tumors = experiment: Mannan (i.v.) and/or GM-CSF (i.t.) in s.c. CT26 tumors; assay type: in vivo, mice; details: GM-CSF i.t. with mannan i.v.
Method: (§2) FIG. 4A-4D. GM-CSF induces Dectin-2 expression and sensitizes tumors to Dectin-2 stimuli. (FIG. 4A-4C) Murine (FIG. 4A, FIG. 4B) and human (FIG. 4C) monocytes were cultured for 24 hr in media supplemented or not with GM-CSF (50 ng/mL) prior to flow cytometric analysis of Dectin-2 expression (FIG. 4A, FIG. 4C) or stimulation with furfurman and analysis of TNFα production (FIG. 4B). […] (FIG. 4D) Mice bearing s.c. CT26 tumors were treated with mannan (i.v.) and/or GM-CSF (i.t.) starting on day 6 post-tumor implantation.
as §2, with “(FIG.” for “FIG. 4A-4D. GM-CSF induces Dectin-2 expression and sensitizes tumors to Dectin-2 stimuli. (FIG.”, “GM-CSF production.” for “TNFα production (FIG. 4B).”

murine monocytes = experiment: Flow cytometric analysis of Dectin-2 expression after GM-CSF culture; assay type: cell-based; details: 24 hr, GM-CSF 50 ng/mL
Method: as §2
as §2, with “(FIG.” for “FIG. 4A-4D. GM-CSF induces Dectin-2 expression and sensitizes tumors to Dectin-2 stimuli. (FIG.”, “GM-CSF production.” for “TNFα production (FIG. 4B).”

human monocytes = experiment: as above; assay type: cell-based; details: 24 hr, GM-CSF 50 ng/mL
Method: as §2
as §2, with “(FIG.” for “FIG. 4A-4D. GM-CSF induces Dectin-2 expression and sensitizes tumors to Dectin-2 stimuli. (FIG.”, “GM-CSF production.” for “TNFα production (FIG. 4B).”

Compound	T cell infiltration into tumors (subcutaneous PDAC tumors)	high-mannose glycan display by tumor cells in vivo (subcutaneous PDAC tumors)	TAM activation by treated tumor cells (cytokine production, tumor cell uptake) [1]	high-mannose glycans on the cell surface (PDAC cells)	sensitization of tumors to Dectin-2 stimuli (tumor volume) (s.c. CT26 tumors)	Dectin-2 expression (murine monocytes)	Dectin-2 expression (human monocytes)
O=C1N[C@@H]2[C@@H](O)[C@@H](O)[C@H](O)[C@@H](CO)N2C1=O [kifunensine]	led to T cell infiltration into tumors	increased high-mannose glycan display by tumor cells	inducing proinflammatory cytokine production and tumor cell uptake	sharp increase			
GM-CSF: cytokine that induces Dectin-2 expression by myeloid cells					sensitized tumors to Dectin-2 stimuli	induced Dectin-2 expression	induced Dectin-2 expression
